In brackets after ≈: the same amount, converted by molar mass.
Columns and labels:
Saccharomyces cerevisiae = test: Antimicrobial activity against Saccharomyces cerevisiae expressing rad52 mutant gene assessed as increase in sensitivity at 20 umol/L by spectrophotometry relative to wild type; format: functional
Aspergillus fumigatus = test: Antimicrobial activity against Aspergillus fumigatus ATCC 204305 by Alamar blue method; format: functional, organism-based
Staphylococcus aureus [1] = test: Antimicrobial activity against methicillin-resistant Staphylococcus aureus ATCC 33591 by Alamar blue method; format: functional, organism-based
Candida albicans = test: Antimicrobial activity against Candida albicans ATCC 90028 by Alamar blue method; format: functional, organism-based
Pichia kudriavzevii = test: Antimicrobial activity against Candida krusei ATCC 6258 by Alamar blue method; format: functional, organism-based
Staphylococcus aureus [2] = test: Antimicrobial activity against Staphylococcus aureus ATCC 29213 by Alamar blue method; format: functional, organism-based; settings: Staphylococcus aureus, ATCC 29213; for IC50: read-out: IC50
Nakaseomyces glabratus = test: Antimicrobial activity against Candida glabrata by Alamar blue method; format: functional, organism-based
Vero = test: Cytotoxicity against african green monkey Vero cells at 10 ug/ml after 48 hrs by Neutral Red dye assay; format: cell-based; settings: chlorocebus sabaeus
[3] = tested on: Mycobacterium intracellulare; test: Antimicrobial activity against Mycobacterium intracellulare ATCC 23068 by Alamar blue method; format: functional, organism-based
Cryptococcus neoformans = test: Antimicrobial activity against Cryptococcus neoformans ATCC 90113 by Alamar blue method; format: functional, organism-based
in vitro = settings: monkey, Vero cells
Description: Selectivity index, ratio of TC50 for african green monkey Vero cells to IC50 for Aspergillus fumigatus ATCC 204305

[4] = Cytotoxicity against african green monkey Vero cells after 48 hrs by Neutral Red dye assay; format: cell-based; settings: chlorocebus sabaeus, read-out: TC50

Compound | IC50 (Aspergillus fumigatus) [µg/mL] | MFC (Aspergillus fumigatus) [µg/mL] | MIC (Aspergillus fumigatus) [µg/mL] | IC50 (Staphylococcus aureus [1]) [µg/mL] | MBC (Staphylococcus aureus [1]) [µg/mL] | MIC (Staphylococcus aureus [1]) [µg/mL] | IC50 (Candida albicans) [µg/mL] | MFC (Candida albicans) [µg/mL] | MIC (Candida albicans) [µg/mL] | IC50 (Pichia kudriavzevii) [µg/mL] | MIC (Pichia kudriavzevii) [µg/mL] | MBC (Staphylococcus aureus [2]) [µg/mL] | MIC (Staphylococcus aureus [2]) [µg/mL] | IC50 (Staphylococcus aureus [2]) [µg/mL] | IC50 (Nakaseomyces glabratus) [µg/mL] | MIC (Nakaseomyces glabratus) [µg/mL] | IC50 [3] [µg/mL] | MBC [3] [µg/mL] | MFC (Cryptococcus neoformans) [µg/mL] | MIC (Cryptococcus neoformans) [µg/mL] | other results
COc1cccc2c1C(=O)c1c(O)c3c(c(O)c1C2=O)C[C@@](O)(C(=O)CO)C[C@@H]3O[C@H]1C[C@H](N)[C@H](O)[C@H](C)O1 [DOXORUBICIN] |  |  |  |  |  |  |  |  |  |  |  |  |  |  |  |  |  |  |  |  | fold change (FC) (Saccharomyces cerevisiae): >100
FC(F)(F)c1ccccc1CSc1cc2ccccc2[n+](CCCCCC2CCCCC2)c1.[I-] | 3.7 | 10 | 5 | 0.22 | 1.3 | 0.63 | 0.97 | 5 | 2.5 | 0.43 | 1.3 | 1.3 | 0.31 | 0.19 | 2.7 | 5 | 3.4 | 5 | 1.3 | 0.63 | Activity (Vero): Non-toxic; MIC [3]: 5 µg/mL; IC50 (Cryptococcus neoformans): 0.42 µg/mL
CC(C)(C)c1ccc(CSc2cc3ccccc3[n+](CCCCCC3CCCCC3)c2)cc1.[I-] | > 20 | > 20 | > 20 | 12 | > 20 | 20 | 20 | > 20 | > 20 | 1.2 | 20 | > 20 | > 20 | > 20 | > 20 | > 20 | > 20 | > 20 | 10 | 1.3 | MFC (Pichia kudriavzevii): 20 µg/mL; MFC (Nakaseomyces glabratus): > 20 µg/mL; Activity (Vero): Non-toxic; MIC [3]: > 20 µg/mL
C[C@@H]1[C@H](O)[C@@H](C)/C=C/C=C/C=C/C=C/C=C/C=C/C=C/[C@H](O[C@@H]2O[C@H](C)[C@@H](O)[C@H](N)[C@@H]2O)C[C@@H]2O[C@](O)(C[C@@H](O)C[C@@H](O)[C@H](O)CC[C@@H](O)C[C@@H](O)CC(=O)O[C@H]1C)C[C@H](O)[C@H]2C(=O)O [AMPHOTERICIN B] |  | 5 (≈ 5.41 µM) | 1.3 (≈ 1.41 µM) |  |  |  |  | 1.3 (≈ 1.41 µM) | 0.62 (≈ 0.671 µM) | 0.22 (≈ 0.238 µM) | 0.62 (≈ 0.671 µM) |  |  |  | 0.22 (≈ 0.238 µM) | 0.63 (≈ 0.682 µM) |  |  | 0.63 (≈ 0.682 µM) | 0.63 (≈ 0.682 µM) | selectivity ratio (in vitro): 38; MFC (Pichia kudriavzevii): 1.3 µg/mL (≈ 1.41 µM); MFC (Nakaseomyces glabratus): 1.3 µg/mL (≈ 1.41 µM); IC50 (Cryptococcus neoformans): 0.2 µg/mL (≈ 0.216 µM)
Oc1ccc(CSc2cc3ccccc3[n+](CCCCCC3CCCCC3)c2)cc1.[I-] | 16 | 20 | 20 | 0.34 | 5 | 0.63 | 11 | 20 | 20 | 0.56 | 1.3 | 2.5 | 2.5 | 0.26 | 7.9 | 20 | 2.2 | 5 | 10 | 10 | MFC (Pichia kudriavzevii): 1.3 µg/mL; MFC (Nakaseomyces glabratus): 20 µg/mL; Activity (Vero): Non-toxic; MIC [3]: 2.5 µg/mL
Cc1cccc(CSc2cc3ccccc3[n+](CCCCCC3CCCCC3)c2)c1.[I-] | 5.8 | 10 | 10 | 0.72 | 2.5 | 1.3 | 2 | 5 | 5 | 0.67 | 2.5 | 2.5 | 1.3 | 0.64 | 3.3 | 5 | 7.2 | 10 | 0.63 | 0.63 | MFC (Pichia kudriavzevii): 2.5 µg/mL; MFC (Nakaseomyces glabratus): 10 µg/mL; MIC [3]: 10 µg/mL; CC50 at 48 h [4]: 5 µg/mL

— ChEMBL document CHEMBL3085759, “Structure-activity relationship (SAR) and preliminary mode of action studies of 3-substituted benzylthioquinolinium iodide as anti-opportunistic infection agents” (Eur J Med Chem, 2013)
